Experimental data: patent US9635859B2, “Pesticidal compositions and processes related thereto” (Dow AgroSciences LLC, priority 2012, dated 2017)

How the values were obtained:
Assay type in all cases: in vivo
[1] = tested on: Corn Earworm (Helicoverpa zea); assay: Bioassays on CEW, 128-well diet tray assay; settings: percent mortality, second instar larvae, 50 μg/cm^2 on artificial diet, five to seven days, 25° C.; Table 3
Method: (§1) Certain molecules disclosed in this document were tested against BAW and CEW and CL using procedures described in the following examples. In the reporting of the results, the “BAW & CEW & CL Rating Table” was used (See Table Section).
Bioassays on CEW (Helicoverpa zea)
Bioassays on CEW were conducted using a 128-well diet tray assay. one to five second instar CEW larvae were placed in each well (3 mL) of the diet tray that had been previously filled with 1 mL of artificial diet to which 50 μg/cm^2 of the test compound (dissolved in 50 μL of 90:10 acetone-water mixture) had been applied (to each of eight wells) and then allowed to dry. Trays were covered with a clear self-adhesive cover, and held at 25° C., 14:10 light-dark for five to seven days. Percent mortality was recorded for the larvae in each well; activity in the eight wells was then averaged. The results are indicated in the table entitled “Table 3: Assay Results” (See Table Section).

[2] = tested on: Cabbage Looper (Trichoplusia ni); assay: Bioassays on CL, 128-well diet tray assay; settings: percent mortality, second instar larvae, 50 μg/cm^2 on artificial diet, five to seven days, 25° C.; Table 3A
Method: as §1
Bioassays on CL (Trichoplusia ni)
Bioassays on CL were conducted using a 128-well diet tray assay. One to five second instar CL larvae were placed in each well (3 mL) of the diet tray that had been previously filled with 1 mL of artificial diet to which 50 μg/cm^2 of the test compound (dissolved in 50 μL of 90:10 acetone-water mixture) had been applied (to each of eight wells) and then allowed to dry. Trays were covered with a clear self-adhesive cover, and held at 25° C., 14:10 light-dark for five to seven days. Percent mortality was recorded for the larvae in each well; activity in the eight wells was then averaged. The results are indicated in the table entitled “Table 3A: Assay Results” (See Table Section).

[3] = tested on: Beet Armyworm (Spodoptera exigua); assay: Bioassays on BAW, 128-well diet tray assay; settings: percent mortality, second instar larvae, 50 μg/cm^2 on artificial diet, five to seven days, 25° C.; Table 3
Method in brief: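 Second-instar larvae (one to five per well) were placed on artificial diet surface-treated with 50 μg/cm^2 compound in acetone-water and held at 25 °C, 14:10 light-dark, for five to seven days. Percent mortality was averaged over eight wells.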

## O=C(NCc1ccc(/C=C/C(c2cc(Cl)c(Cl)c(Cl)c2)C(F)(F)F)cc1Cl)Oc1ccccc1Cl (centres unmarked) [CC40]
[1]
  CEW Rating: A (50-100)

## CCNC(=O)N(C)NC(=O)c1ccc(/C=C/C(c2cc(Cl)c(Cl)c(Cl)c2)C(F)(F)F)cc1Br (centres unmarked) [Compound F1, (E)-2-(2-Bromo-4-(4,4,4-trifluoro-3-(3,4,5-trichlorophenyl)but-1-en-1-yl)benzoyl)-N-ethyl-1-methylhydrazinecarboxamide]
[2]
  CL Rating: A (50-100)

## O=C(NCC(F)(F)F)NNC(=O)c1ccc(/C=C/C(c2cc(Cl)c(Cl)c(Cl)c2)C(F)(F)F)cc1Br (centres unmarked) [Compound F7, (E)-2-(2-Bromo-4-(4,4,4-trifluoro-3-(3,4,5-trichlorophenyl)but-1-en-1-yl)benzoyl)-N-(2,2,2-trifluoroethyl)hydrazinecarboxamide]
[2]
  CL Rating: A (50-100)

## O=C(CC(F)(F)F)NCc1ccc(/C=C/C(c2cc(Cl)c(Cl)c(Cl)c2)C(F)(F)F)cc1Br (centres unmarked) [CC25]
[3]
  BAW Rating: A (50-100)

## O=C(CC(F)(F)F)NC1CCCc2cc(/C=C/C(c3cc(Cl)c(Cl)c(Cl)c3)C(F)(F)F)ccc21 (centres unmarked) [BC5]
[3]
  BAW Rating: A (50-100)

## Cc1cc(/C=C/C(c2cc(Cl)c(Cl)c(Cl)c2)C(F)(F)F)ccc1-n1cncn1 (centres unmarked) [DC63]
[3]
  BAW Rating: A (50-100)

## CC(C)(C)OC(=O)CNC(=O)c1ccc(/C=C/C(c2cc(Cl)c(Cl)c(Cl)c2)C(F)(F)F)cc1Br (centres unmarked) [AC58]
[3]
  BAW Rating: A (50-100)

## O=C(Cc1ccc(Cl)nc1)NCc1ccc(/C=C/C(c2cc(Cl)c(Cl)c(Cl)c2)C(F)(F)F)cc1Cl (centres unmarked) [CC14]
[3]
  BAW Rating: A (50-100)
